# Measured values reported in patent US6737383B1, “Herbicidal oxadiazolidines” (priority 1999, dated 2004).
# Tests used:
# bamyardgrass = experiment: Test B flood test barnyardgrass; assay type: in vivo, Echinochloa crus-galli
# Procedure, shortened: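 Plants were grown to the 2-leaf stage before treatment with test chemical, then held in a greenhouse for twelve to sixteen days. Injury was visually rated against untreated controls on a 0–10 scale, where 0 is no effect and 10 is complete control.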
# pigweed = experiment: Test B pre/postemergence pigweed; assay type: in vivo, Amaranthus retroflexus; details: for Redroot pigweed plant response rating (0 to 10 scale): 0 is no effect
# Procedure, shortened: (§1)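 Response is a visual 0-to-10 score relative to untreated plants, where 0 means no effect and 10 means complete control, taken twelve to sixteen days after application. Treatments went onto soil at planting and onto foliage of 1- to 4-leaf plants, using a surfactant-containing non-phytotoxic solvent.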
# cocklebur = experiment: Test B pre/postemergence cocklebur; assay type: in vivo, Xanthium strumarium; details: for Cocklebur plant response rating (0 to 10 scale): 0 is no effect
# Procedure, shortened: as §1
# sugar beet = experiment: Test B pre/postemergence sugar beet; assay type: in vivo, Beta vulgaris; details: for Sugarbeets plant response rating (0 to 10 scale): 0 is no effect
# Procedure, shortened: as §1
# [1] = Postemergence, Rate 62 g/ha, scale 0 to 10, 0 is no effect, 10 is complete control
# [2] = Rate 500 g/ha, listed under Postemergence (flood test species), scale 0 to 10, 0 no effect, 10 complete control
# [3] = Postemergence, Rate 125 g/ha, scale of 0 to 10 where 0 is no effect and 10 is complete control
# [4] = Preemergence, Rate 62 g/ha, scale 0 to 10 (0 no effect, 10 complete control)
# [5] = Preemergence, Rate 125 g/ha, scale 0 to 10 (0 no effect, 10 complete control)
# [6] = Preemergence, Rate 250 g/ha, scale of 0 to 10 where 0 is no effect and 10 is complete control
# [7] = Preemergence, Rate 500 g/ha, scale 0 to 10 (0 no effect, 10 complete control)
# [8] = Rate 62 g/ha, Postemergence, scale of 0 to 10 where 0 is no effect and 10 is complete control
# [9] = Rate 250 g/ha, Postemergence, scale 0 to 10, 0 is no effect, 10 is complete control
# [10] = Rate 500 g/ha, Postemergence, scale 0 to 10, 0 no effect, 10 complete control
# [11] = Preemergence, Rate 125 g/ha, 10 is complete control
# [12] = Postemergence (flood test species), Rate 125 g/ha, scale of 0 to 10 where 0 is no effect and 10 is complete control
# [13] = Rate 250 g/ha, Postemergence (flood test), scale 0 to 10, 0 is no effect, 10 is complete control
# [14] = Postemergence, Rate 1000 g/ha, scale 0 to 10 (0 no effect, 10 complete control)
# [15] = Preemergence, Rate 250 g/ha, scale 0 to 10, 0 is no effect, 10 is complete control
# [16] = Rate 500 g/ha, Postemergence, scale 0 to 10
# [17] = Rate 1000 g/ha, Preemergence, scale 0 to 10 (0 no effect, 10 complete control)
# [18] = Rate 62 g/ha, Postemergence section, flood test species, scale of 0 to 10 where 0 is no effect and 10 is complete control
# [19] = Preemergence, Rate 31 g/ha, visual rating, scale 0 to 10 (0 no effect, 10 complete control)
# [20] = Rate 31 g/ha, Postemergence, scale 0 to 10
# [21] = Preemergence, Rate 62 g/ha, scale of 0 to 10 where 0 is no effect and 10 is complete control
Compound,Redroot pigweed plant response rating (pigweed; [3]),Redroot pigweed plant response rating (pigweed; [4]),Redroot pigweed plant response rating (pigweed; [7]),Redroot pigweed plant response rating (pigweed; [8]),"Plant response rating, Redroot pigweed (pigweed; [9])",Cocklebur plant response rating (cocklebur; [3]),Cocklebur plant response rating (cocklebur; [4]),Cocklebur plant response rating (cocklebur; [7]),Cocklebur plant response rating (cocklebur; [8]),Sugarbeets plant response rating (sugar beet; [3]),Sugarbeets plant response rating (0 to 10 scale) (sugar beet; [11]),Sugarbeets plant response rating (sugar beet; [7]),Sugarbeets plant response rating (sugar beet; [8]),"Plant response rating, Sugarbeets (sugar beet; [9])",Redroot pigweed plant response rating (0 to 10 scale) (pigweed; [11]),Redroot pigweed plant response rating (pigweed; [15]),Cocklebur plant response rating (0 to 10 scale) (cocklebur; [11]),Cocklebur plant response rating (cocklebur; [15]),"Plant response rating, Cocklebur (cocklebur; [9])",Sugarbeets plant response rating (sugar beet; [15]),further results
CC(C)N(C(=O)n1oc(=O)n(Cc2ccccc2)c1=O)c1ccc(Cl)cc1 [Compound 106],0,0,4,0,0,2,0,0,0,0,0,2,0,0,–,–,–,–,–,–,"Barnyardgrass plant response rating (bamyardgrass; [1]): 0; Barnyardgrass plant response rating (bamyardgrass; Rate 125 g/ha, Postemergence section (flood test species), scale 0 to 10, 0 no effect, 10 complete control): 0; Barnyardgrass plant response rating (bamyardgrass; [2]): 0; Barnyardgrass plant response rating (bamyardgrass; flood test, listed under Postemergence, Rate 250 g/ha, scale 0 to 10, 0 no effect, 10 complete control): 0; Plant response rating, Redroot pigweed (pigweed; [5]): 0; Plant response rating, Redroot pigweed (pigweed; [6]): 0; Redroot pigweed plant response rating (pigweed; [10]): 6; Cocklebur plant response rating (cocklebur; Postemergence, Rate 250 g/ha, scale 0 to 10, 0 no effect, 10 complete control): 2; Plant response rating, Cocklebur (cocklebur; [5]): 0; Plant response rating, Cocklebur (cocklebur; [6]): 0; Cocklebur plant response rating (cocklebur; [10]): 4; Sugarbeets plant response rating (sugar beet; [4]): 0; Plant response rating, Sugarbeets (sugar beet; [6]): 0; Sugarbeets plant response rating (sugar beet; [10]): 0"
C=CCn1c(=O)on(C(=O)N(c2ccc(F)cc2F)C2CC2)c1=O [Compound 127],0,0,7,0,0,0,0,0,0,0,0,0,0,0,0,3,0,0,0,0,"Barnyardgrass plant response rating (bamyardgrass; [12]): 0; Barnyardgrass plant response rating (bamyardgrass; [1]): 0; Plant response rating, Barnyardgrass (bamyardgrass; [13]): 0; Barnyardgrass plant response rating (bamyardgrass; [2]): 0; Redroot pigweed plant response rating (pigweed; [14]): 0; Redroot pigweed plant response rating (pigweed; [16]): 0; Plant response rating, Redroot pigweed (pigweed; [17]): 10; Cocklebur plant response rating (cocklebur; [14]): 0; Cocklebur plant response rating (cocklebur; [16]): 0; Sugarbeets plant response rating (sugar beet; [14]): 0; Sugarbeets plant response rating (sugar beet; [4]): 0; Sugarbeets plant response rating (sugar beet; [16]): 0; Plant response rating, Sugarbeets (sugar beet; [17]): 0"
CC(C)N(C(=O)n1oc(=O)n(Cc2ccccc2Cl)c1=O)C1=CCCCC1 [Compound 145],0,0,4,0,0,0,0,0,0,0,0,3,0,0,0,2,0,0,0,0,"Barnyardgrass plant response rating (bamyardgrass; [12]): 6; Barnyardgrass plant response rating (bamyardgrass; [18]): 0; Plant response rating, Barnyardgrass (bamyardgrass; [13]): 7; Barnyardgrass plant response rating (bamyardgrass; [2]): 9; Redroot pigweed plant response rating (pigweed; [16]): 2; Cocklebur plant response rating (cocklebur; [16]): 0; Sugarbeets plant response rating (sugar beet; [4]): 0; Sugarbeets plant response rating (sugar beet; [16]): 0"
Cc1noc(C)c1-n1c(=O)on(C(=O)N(c2ccc(F)cc2F)C(C)C)c1=O [Compound 156],0,0,–,0,0,0,0,–,0,0,0,–,0,0,4,9,0,0,0,0,"Barnyardgrass plant response rating (bamyardgrass; [12]): 0; Barnyardgrass plant response rating (bamyardgrass; Rate 31 g/ha, Postemergence section (flood test species), scale 0 to 10): 0; Barnyardgrass plant response rating (bamyardgrass; [18]): 0; Plant response rating, Barnyardgrass (bamyardgrass; [13]): 0; Redroot pigweed plant response rating (pigweed; [19]): 0; Redroot pigweed plant response rating (pigweed; [20]): 0; Cocklebur plant response rating (cocklebur; [19]): 0; Cocklebur plant response rating (cocklebur; [20]): 0; Sugarbeets plant response rating (sugar beet; [19]): 0; Sugarbeets plant response rating (sugar beet; [4]): 0"
CCN(Cc1ccccc1)C(=O)n1oc(=O)n(C(C)C)c1=O [Compound 166],0,–,0,0,2,0,–,0,0,0,0,0,0,0,0,0,0,0,0,0,"Barnyardgrass plant response rating (bamyardgrass; Rate 62 g/ha, headed Pre-emergence (flood test species), scale 0 to 10 (0 no effect, 10 complete control)): 0; Barnyardgrass plant response rating (bamyardgrass; Rate 125 g/ha, Pre-emergence, flood test species, scale 0 to 10 where 0 is no effect and 10 is complete control): 0; Barnyardgrass plant response rating (bamyardgrass; Rate 250 g/ha, Pre-emergence, flood-test species, scale 0 to 10, 0 is no effect, 10 is complete control): 0; Plant response rating, Barnyardgrass (bamyardgrass; Rate 500 g/ha, headed Pre-emergence (flood test species), scale 0 to 10 (0 no effect, 10 complete control)): 0; Redroot pigweed plant response rating (pigweed; [21]): 0; Redroot pigweed plant response rating (pigweed; [16]): 3; Cocklebur plant response rating (cocklebur; [21]): 0; Cocklebur plant response rating (cocklebur; [16]): 0; Sugarbeets plant response rating (sugar beet; [21]): 0; Sugarbeets plant response rating (sugar beet; [16]): 0"
Cc1ccccc1-n1c(=O)on(C(=O)N(c2cccc(F)c2F)C(C)C)c1=O [Compound 171],0,–,6,0,0,0,–,0,0,0,0,0,0,2,0,5,0,0,3,0,"Barnyardgrass plant response rating (bamyardgrass; [12]): 0; Barnyardgrass plant response rating (bamyardgrass; [18]): 0; Plant response rating, Barnyardgrass (bamyardgrass; [13]): 0; Barnyardgrass plant response rating (bamyardgrass; Rate 500 g/ha, listed under Postemergence (flood test species), scale 0 to 10): 0; Redroot pigweed plant response rating (pigweed; [21]): 0; Redroot pigweed plant response rating (pigweed; [16]): 5; Cocklebur plant response rating (cocklebur; [21]): 0; Cocklebur plant response rating (cocklebur; [16]): 3; Sugarbeets plant response rating (sugar beet; [21]): 0; Sugarbeets plant response rating (sugar beet; [16]): 2"
